Test results taken from publication PMC13489962, “Small-molecule modulation of β-arrestins” (Nature, 2026).

Key:
βARR1 Y249A = target: T1, βARR1 Y249A (Rattus norvegicus, UniProt P29066, Y249A); test: ITC binding to βARR1 mutant Y249A
T1 construct: βARR1 or βARR2 construct, with their C terminus truncated (at amino acid 393 or 394, respectively); GST (pGEX4T1) (N, cleaved yes); made in house; host or cells: E. coli BL21 (DE3) pLysS
Experimental: The expression and purification of β-arrestins have been described previously[44],[62]–[64]. In brief, E. coli BL21 (DE3) pLysS cells (New England Biolabs: C2527I) carrying pGEX4T1-Rattus norvegicus βARR1 or βARR2 construct, with their C terminus truncated (at amino acid 393 or 394, respectively), were cultured in Terrific Broth (Teknova) medium at 37 °C. After OD600 reached 0.6–0.8, the cells were induced with 0.1 mM isopropyl-β-D-thiogalactopyranoside (IPTG) at 18 °C overnight. Bacteria were collected by centrifugation (4,000 rpm), and cell pellets were resuspended in lysis buffer (20 mM HEPES, pH 8, 150 mM NaCl, 10% glycerol, 1 mM EDTA, 0.2 mM dithiothreitol (DTT), 1 mM phenylmethylsulfonyl fluoride, and 1 mM benzamidine) at 4 °C for 1 h. […] Eluted fractions were analysed by SDS–PAGE, pooled, concentrated using 30 kDa MWCO Amicon Ultra-15 Centrifugal Filter devices, flash-frozen in liquid nitrogen, and stored in aliquots at −80 °C. […] Protein concentrations for each protein were determined by ultraviolet absorption at 280 nm and extinction coefficients estimated using the ExPASy ProtParam tool[67].
ITC measurements were performed on a MicroCal iTC200 system at 25 °C. […] Protein concentrations were determined by spectrophotometry at 280 nm, using extinction coefficients calculated from each protein sequence via the ProtParam program. […]

[1] = test system: βARR2 conformation (AT1R); test: Intramolecular FlAsH-BRET βARR2 conformational sensors; type: cell-based, human; settings: 50 μM, 15 min; AngII 10 μM
Experimental: Intramolecular FlAsH-BRET assays[72] were performed in HEK293 βARR1/2-knockout cells transiently transfected using FuGENE4K with 2 μg total DNA per 15 cm dish. Cells were transfected with 1.5 μg of pcDNA3.1 encoding human AT1R and 0.4 μg of a plasmid encoding the indicated RLuc–β-arrestin2–FlAsH biosensors. Twenty-four hours after transfection, cells were replated into poly-D-lysine-coated 96-well white, clear-bottom plates at 100,000 cells per well in MEM supplemented with 10% FBS. Forty-eight hours after transfection, cells were labelled with FlAsH-EDT2 (FlAsH II In-Cell Tetracysteine Detection Kit, Thermo Fisher) at a final concentration of 2.5 μM for 30 min at room temperature. Following labelling, cells were washed twice with BAL wash buffer (250 μM 2,3-dimercapto-1-propanol in HBSS), then equilibrated in HBSS supplemented with 20 mM HEPES (pH 7.4). Modulators were applied at 50 μM for 15 min, followed by addition of Prolume Purple substrate (Nanolight Technologies). Cells were then stimulated with 10 μM angiotensin II. BRET signals were recorded using a CLARIOstar Plus plate reader in kinetic mode (480 nm donor, 530 nm acceptor) for 30 min, and peak values were used for quantification. ΔNet BRET was calculated by subtracting baseline values from each condition, including agonist alone, modulator alone, or agonist plus modulator.

T1 sequence (P29066 1-393 Y249A): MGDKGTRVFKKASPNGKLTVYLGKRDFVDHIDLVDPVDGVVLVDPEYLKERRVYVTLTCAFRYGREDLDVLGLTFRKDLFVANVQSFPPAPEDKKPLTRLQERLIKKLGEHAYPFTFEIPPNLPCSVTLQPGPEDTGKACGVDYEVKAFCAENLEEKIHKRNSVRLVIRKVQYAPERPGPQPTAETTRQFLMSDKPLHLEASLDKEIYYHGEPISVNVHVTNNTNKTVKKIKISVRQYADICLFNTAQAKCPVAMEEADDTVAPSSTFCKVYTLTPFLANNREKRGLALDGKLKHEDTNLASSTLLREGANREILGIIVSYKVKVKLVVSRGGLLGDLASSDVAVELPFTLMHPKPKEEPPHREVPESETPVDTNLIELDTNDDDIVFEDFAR

## C=C1C(=O)[C@]23[C@H](O)[C@H]1CC[C@H]2[C@@]12CO[C@]3(O)[C@@H](O)[C@@H]1C(C)(C)CC[C@@H]2O [Cmpd-5, (1S,4aR,5S,6S,6aR,9S,11aS,11bS,14R)-1,5,6,14-tetrahydroxy−4,4-dimethyl-8-methylenedecahydro-1H-6,11b-(epoxymethano)-6a,9-methanocyclohepta[a]naphthalen-7(8H)-one]
βARR1 Y249A
  Kd fold over WT, βARR1 Y249A: 10.6 fold
βARR1 Y249A; 25 °C
  Kd: 3.8 ± 0.9 µM
[1]
  effect on AngII-induced active βarr2 FlAsH-BRET signature: largely attenuates this active signature
